ChEMBL document CHEMBL6177958, “6,7-Dimethoxy-2-methyl-4-substituted quinazolines: Design, synthesis, EGFR inhibitory activity, in vitro cytotoxicity, and in silico studies” (Eur J Med Chem, 2025)

How the values were obtained:
Format in all cases: functional
[1] = system: HCT-116; experiment: Cell cycle arrest in human HCT-116 cells assessed as accumulation of cells at S phase by flow cytometry (reference value: 39.26%)
[2] = system: HCT-116; experiment: Induction of apoptosis in human HCT-116 cells assessed as necrotic apoptotic cells measured after 24 hrs by PI based flow cytometry (reference value: 1.84%)
[3] = system: HCT-116; experiment: Induction of apoptosis in human HCT-116 cells assessed as early apoptotic cells measured after 24 hrs by PI based flow cytometry (reference value: 0.43%)
[4] = system: HCT-116; experiment: Induction of apoptosis in human HCT-116 cells assessed as late apoptotic cells measured after 24 hrs by PI based flow cytometry (reference value: […])
[5] = system: HCT-116; experiment: Induction of apoptosis in human HCT-116 cells assessed as total apoptotic cells measured after 24 hrs by PI based flow cytometry (reference value: 2.38%)
[6] = system: HCT-116; experiment: Cell cycle arrest in human HCT-116 cells assessed as accumulation of cells at G0-G1 phase by flow cytometry (reference value: 46.33%)
[7] = system: HCT-116; experiment: Cell cycle arrest in human HCT-116 cells assessed as accumulation of cells at G2-M phase by flow cytometry (reference value: 14.41%)

## COc1cc2nc(C)nc(N/N=C/c3cc(CN4CCN(C)CC4)c(O)c(OC)c3)c2cc1OC
[1]
  Activity: 49.11%
[2]
  Activity: 2.48%
[3]
  Activity: 26.13%
[4]
  Activity: 11.27%
[5]
  Activity: 39.88%
[6]
  Activity: 42.18%
[7]
  Activity: 8.71%
